Assay results: patent publication US20150080438A1, “6,7-Dihydro-5H-benzo[7]annulene derivatives, processes for their preparation, pharmaceutical products comprising them and their use for preparing medicaments” (Bayer Intellectual Property GmbH, priority 2011, published 2015)

Target: T1, oestrogen receptor (ER) (Homo sapiens, UniProt P03372)
T1 construct: These MVLN cells express, along with the functional oestrogen receptor (ER), a reporter construct; endogenous in cells; host or cells: MVLN cells (MCF7 derivative with ER-responsive luciferase reporter)
T1 sequence (P03372 1-595): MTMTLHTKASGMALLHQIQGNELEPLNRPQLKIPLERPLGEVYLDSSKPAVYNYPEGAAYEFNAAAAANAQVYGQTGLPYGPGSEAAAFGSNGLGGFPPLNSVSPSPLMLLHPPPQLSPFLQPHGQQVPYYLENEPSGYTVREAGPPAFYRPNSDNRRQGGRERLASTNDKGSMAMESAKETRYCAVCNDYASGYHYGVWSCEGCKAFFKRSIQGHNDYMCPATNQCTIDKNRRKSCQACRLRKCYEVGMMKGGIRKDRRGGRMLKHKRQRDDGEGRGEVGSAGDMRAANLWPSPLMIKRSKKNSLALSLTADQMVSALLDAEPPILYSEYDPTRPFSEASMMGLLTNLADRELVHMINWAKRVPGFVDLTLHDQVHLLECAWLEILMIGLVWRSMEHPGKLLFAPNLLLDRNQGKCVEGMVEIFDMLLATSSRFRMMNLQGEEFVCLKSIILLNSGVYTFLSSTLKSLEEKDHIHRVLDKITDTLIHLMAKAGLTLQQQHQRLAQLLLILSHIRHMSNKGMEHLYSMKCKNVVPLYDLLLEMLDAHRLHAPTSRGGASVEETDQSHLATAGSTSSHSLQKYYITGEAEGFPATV
Test: Anti-oestrogenic action in MVLN cells (inhibition of estradiol-induced luciferase, transactivation antagonism)
Type: cell-based
Details: inhibition of estradiol-induced luciferase activity, read-out: Anti-oestrogenic action in vitro: MVLN transactivation antagonism IC50
Description: The anti-oestrogenic action of the claimed pharmacological compounds was investigated in so-called MVLN cells in vitro. MVLN cells are derivatives of the hormone-responsive MCF7 breast cancer cells known by a person skilled in the art. These MVLN cells express, along with the functional oestrogen receptor (ER), a reporter construct, which under ER-activation expresses luciferase. Determination of the activity of the induced luciferase permits a direct conclusion on the oestrogen properties of substances. To investigate the anti-oestrogenic properties of the pharmacological compounds, they were investigated in the presence of oestrogen for their potential for inhibiting the luciferase signal induced by estradiol.
The claimed pharmacological test substances were investigated in MVLN cells for their anti-oestrogenic potential, as described (see Table 2).

SMILES	IC50 [nM]
CN(CCCCCCC1=C(c2cccnc2)CCCc2cc(O)ccc21)CCCSCCCC(F)(F)C(F)(F)F [Example 42, 9-[6-(Methyl{3-[(4,4,5,5,5-pentafluoropentyl)sulphanyl]propyl}amino)hexyl]-8-(3-pyridyl)-6,7-dihydro-5H-benzo[7]annulen-3-ol]	7
CC(C)(O)CN(CCCCCCC1=C(c2ccccc2)CCCc2cc(O)ccc21)CCC[S+]([O-])CCCC(F)(F)C(F)(F)F (racemic) [Example 74, 9-{6-[(2-Hydroxy-2-methylpropyl){3-[(RS)-(4,4,5,5,5-pentafluoropentyl)sulphinyl]propyl}amino]hexyl}-8-phenyl-6,7-dihydro-5H-benzo[7]annulen-3-ol]	3
CN(CCCCCCC1=C(c2ccc(F)c(O)c2)CCCc2c1ccc(O)c2F)CCCCS(=O)(=O)CCCC(F)(F)C(F)(F)F [Example 117, 4-Fluoro-8-(4-fluoro-3-hydroxyphenyl)-9-[6-(methyl{4-[(4,4,5,5,5-pentafluoropentyl)sulphonyl]butyl}amino)hexyl]-6,7-dihydro-5H-benzo[7]annulen-3-ol]	11
CN(CCCCCCC1=C(c2ccc(F)c(O)c2)CCCc2cc(O)ccc21)CCCCS(=O)(=O)CCC(F)(F)F [Example 110, 8-(4-Fluoro-3-hydroxyphenyl)-9-[6-(methyl{4-[(3,3,3-trifluoropropyl)sulphonyl]butyl}amino)hexyl]-6,7-dihydro-5H-benzo[7]annulen-3-ol]	5
CN(CCCCCCC1=C(c2ccc(F)c(O)c2)CCCc2cc(O)ccc21)CCCCCS(=O)(=O)CCCC(F)(F)C(F)(F)F [Example 33, 8-(4-Fluoro-3-hydroxyphenyl)-9-[6-(methyl{5-[(4,4,5,5,5-pentafluoropentyl)sulphonyl]pentyl}amino)hexyl]-6,7-dihydro-5H-benzo[7]annulen-3-ol]	6

The next lines start with the values.

IC50 [nM]	SMILES
26	CN(CCCCCCC1=C(c2ccccc2)CCCc2c1ccc(O)c2Cl)CCCCS(=O)(=O)CCCC(F)(F)C(F)(F)F [Example 103, 4-Chloro-9-[6-(methyl{4-[(4,4,5,5,5-pentafluoropentyl)sulphonyl]butyl}amino)hexyl]-8-phenyl-6,7-dihydro-5H-benzo[7]annulen-3-ol]
4	CC(C)(O)CN(CCCCCCC1=C(c2ccc(F)c(O)c2)CCCc2cc(O)c(F)cc21)CCC[S+]([O-])CCC(F)(F)F (racemic) [Example 129, 2-Fluoro-8-(4-fluoro-3-hydroxyphenyl)-9-{6-[(2-hydroxy-2-methylpropyl){3-[(RS)-(3,3,3-trifluoropropyl)sulphinyl]propyl}amino]hexyl}-6,7-dihydro-5H-benzo[7]annulen-3-ol]
8	CN(CCCCCCC1=C(c2cccnc2)CCCc2cc(O)ccc21)CCC[S+]([O-])CCCC(F)(F)C(F)(F)F (racemic) [Example 43, 9-[6-(Methyl{3-[(RS)-(4,4,5,5,5-pentafluoropentyl)sulphinyl]propyl}amino)hexyl]-8-(3-pyridyl)-6,7-dihydro-5H-benzo[7]annulen-3-ol]
5	COCCCN(CCCCCCC1=C(c2ccc(F)c(O)c2)CCCc2cc(O)c(F)cc21)CCC[S+]([O-])CCCC(F)(F)C(F)(F)F (racemic) [Example 132, 2-Fluoro-8-(4-fluoro-3-hydroxyphenyl)-9-{6-[(3-methoxypropyl){3-[(RS)-(4,4,5,5,5-pentafluoropentyl)sulphinyl]propyl}amino]hexyl}-6,7-dihydro-5H-benzo[7]annulen-3-ol]
2	COCCN(CCCCCCC1=C(c2ccc(F)c(O)c2)CCCc2cc(O)c(F)cc21)CCC[S+]([O-])CCCC(F)(F)C(F)(F)F (racemic) [Example 131, 2-Fluoro-8-(4-fluoro-3-hydroxyphenyl)-9-{6-[(2-methoxyethyl){3-[(RS)-(4,4,5,5,5-pentafluoropentyl)sulphinyl]propyl}amino]hexyl}-6,7-dihydro-5H-benzo[7]annulen-3-ol]
